Results as given in the supplement of paper PMC8967900.

Key:
Assay in all cases: selective drug sensitivity score (sDSS, relative to normal bone marrow) (sDSS (score)); higher = more potent and effective on the cell line relative to normal bone marrow cells
Conditions in all cases: 72 h
RCH-ACV = tested on: RCH-ACV
SEM cells = tested on: SEM cells
CCRF-CEM = tested on: CCRF-CEM
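Also: ALL cell lines in 384-well plates, five doses spanning 10,000-fold, each plate scaled between vehicle and 100 µmol/L benzalkonium chloride controls, sDSS an adapted area-under-curve metric.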

SMILES	selective drug sensitivity score (RCH-ACV)	selective drug sensitivity score (SEM cells)	selective drug sensitivity score (CCRF-CEM)
Clc1ccc(C(c2ccccc2Cl)C(Cl)Cl)cc1 (centres undefined) [Mitotane] (top concentration 10000 nM)	-0.08	-0.08	-0.08
CCS(=O)(=O)Nc1ccc(Oc2ccc(F)cc2F)c(-c2cn(C)c(=O)c3[nH]ccc23)c1 [Mivebresib] (top concentration 10000 nM)	18.1	16	1.5
CN1C(=O)N[C@H](Cc2c[nH]c3c(Cl)cccc23)C1=O [Necrostatin_2] (top concentration 10000 nM)	-0.08	-0.08	-0.08
O=c1ncn2nc(Sc3ccc(F)cc3F)ccc2c1-c1c(Cl)cccc1Cl [Neflamapimod] (top concentration 10000 nM)	6.7	1.5	0
CC(O)c1cc(C(=O)N[C@@H](C)Cn2ccc(-c3ccc(C#N)c(Cl)c3)n2)n[nH]1 (some centres undefined) [ODM-201] (top concentration 2500 nM)	1.12	-0.28	1.52
C=CC(=O)Nc1cccc(Oc2nc(Nc3ccc(N4CCN(C)CC4)cc3)nc3ccsc23)c1 [Olmutinib] (top concentration 1000 nM)	1.58	-0.02	-0.02
C=CC(=O)Nc1cc(Nc2nccc(-c3cn(C)c4ccccc34)n2)c(OC)cc1N(C)CCN(C)C [Osimertinib] (top concentration 2500 nM)	-1.02	0.58	-0.52
O=C(Nc1cc(Cl)cc2c1[nH]c1cnccc12)c1cccnc1 [PS-1145] (top concentration 25000 nM)	3.04	0.04	-0.46
CC(=O)O[C@H]1C(=O)[C@@]2(C)[C@H]([C@H](OC(=O)c3ccccc3)[C@]3(O)C[C@H](OC(=O)[C@H](O)[C@@H](NC(=O)c4ccccc4)c4ccccc4)C(C)=C1C3(C)C)[C@]1(OC(C)=O)CO[C@@H]1C[C@@H]2O [Paclitaxel] (top concentration 1000 nM)	21.8	21.3	18.3
CCCCCCCCCCCCCCCCCCOP(=O)([O-])OC1CC[N+](C)(C)CC1 [Perifosine] (top concentration 2500 nM)	2.34	-0.36	-0.16
CC[C@@H]1C(=O)OC[C@@H]1Cc1cncn1C [Pilocarpine] (top concentration 40000 nM)	-1.56	-1.56	-1.56
Nc1cccc2c1C(=O)N(C1CCC(=O)NC1=O)C2=O (centres undefined) [Pomalidomide] (top concentration 10000 nM)	9.54	3.64	-0.26
Cc1nc(=O)c2cc(CN(C)c3ccc(C(=O)N[C@@H](CCC(=O)O)C(=O)O)s3)ccc2[nH]1 [Raltitrexed] (top concentration 1000 nM)	29.2	23.9	23.3
C=CC(=O)Nc1cccc(Nc2nc(Nc3ccc(N4CCN(C(C)=O)CC4)cc3OC)ncc2C(F)(F)F)c1 [Rociletinib] (top concentration 10000 nM)	2.54	6.34	2.44
CC(C)N(CCCNC(=O)Nc1ccc(C(C)(C)C)cc1)C[C@H]1O[C@@H](n2cc(Br)c3c(N)ncnc32)[C@H](O)[C@@H]1O [SGC0946] (top concentration 10000 nM)	-0.82	-0.72	0.88
CC[C@H](CO)Nc1nc(NCc2ccccc2)c2ncn(C(C)C)c2n1 [Seliciclib] (top concentration 10000 nM)	2.16	-0.04	2.06
CN1CCN(C(=O)c2ccc3cc(CCNc4ncnc5ccc(C#N)cc45)ccc3c2)CC1 [Senexin_B] (top concentration 1000 nM)	2	-0.6	1.7

SMILES	selective drug sensitivity score (RCH-ACV)	selective drug sensitivity score (SEM cells)	selective drug sensitivity score (CCRF-CEM)
Clc1ccccc1C(c1ccccc1)(c1ccccc1)n1cccn1 [TRAM-34] (top concentration 1000 nM)	-0.08	-0.08	-0.08
C=CC[C@@H]1/C=C(\C)C[C@H](C)C[C@H](OC)[C@H]2O[C@@](O)(C(=O)C(=O)N3CCCC[C@H]3C(=O)O[C@H](/C(C)=C/[C@@H]3CC[C@@H](O)[C@H](OC)C3)[C@H](C)[C@@H](O)CC1=O)[C@H](C)C[C@@H]2OC [Tacrolimus] (top concentration 10000 nM)	10.7	7.88	2.78
CCN(c1cc(-c2ccc(CN3CCOCC3)cc2)cc(C(=O)NCc2c(C)cc(C)[nH]c2=O)c1C)C1CCOCC1 [Tazemetostat] (top concentration 10000 nM)	-0.08	2.42	1.02
COc1cc2c(Nc3ccc(Cl)c(Cl)c3F)ncnc2cc1OC[C@@H]1C[C@@H]2CN(C)C[C@@H]2C1 [Tesevatinib] (top concentration 1000 nM)	0.64	1.44	1.34
O=C1CCC(N2C(=O)c3ccccc3C2=O)C(=O)N1 (centres undefined) [Thalidomide] (top concentration 10000 nM)	-0.14	-0.14	-0.14
O=C1NC(=O)[C@@H](c2cn3c4c(cccc24)CCC3)[C@@H]1c1c[nH]c2ccccc12 [Tivantinib] (top concentration 1000 nM)	4.28	7.18	3.98
C[C@@H]1CCN(C(=O)CC#N)C[C@@H]1N(C)c1ncnc2[nH]ccc12 [Tofacitinib] (top concentration 5000 nM)	-7.86	-7.86	-7.86
COc1cc2c(NC3CCN(C(C)C)CC3)nc(C3CCCCC3)nc2cc1OCCCN1CCCC1 [UNC0638] (top concentration 10000 nM)	0.66	-2.94	0.46
CCCCNc1ncc(C(=O)NCc2ccc(-n3ccnc3)cc2)c(NC2CCC(O)CC2)n1 (centres undefined) [UNC2881] (top concentration 2500 nM)	0.4	6.3	0
CC[C@@H]1CN(C(=O)NCC(F)(F)F)C[C@@H]1c1cnc2cnc3[nH]ccc3n12 [Upadacitinib] (top concentration 10000 nM)	-7.16	-7.16	-4.66
O=C(O)CC1CC(c2ccccc2)=NO1 (centres undefined) [VGX-1027] (top concentration 10000 nM)	-0.04	-0.04	-0.04
CCCCC(=O)OCC(=O)[C@]1(O)Cc2c(O)c3c(c(O)c2[C@@H](O[C@H]2C[C@H](NC(=O)C(F)(F)F)[C@H](O)[C@H](C)O2)C1)C(=O)c1c(OC)cccc1C3=O [Valrubicin] (top concentration 5000 nM)	11.8	6.58	10.9
CCc1c(C(=O)C(N)=O)c2c(OCC(=O)O)cccc2n1Cc1ccccc1 [Varespladib] (top concentration 10000 nM)	-0.84	-0.84	-0.84
CC1(C)CCC(CN2CCN(c3ccc(C(=O)NS(=O)(=O)c4ccc(NCC5CCOCC5)c([N+](=O)[O-])c4)c(Oc4cnc5[nH]ccc5c4)c3)CC2)=C(c2ccc(Cl)cc2)C1 [Venetoclax] (top concentration 1000 nM)	-1.3	21.1	-1.8
CCCCOc1nc(N)c2c(n1)N(Cc1cccc(CN3CCCC3)c1)CC(=O)N2 [Vesatolimod] (top concentration 10000 nM)	-3.52	-3.52	-3.52
CCC1=C[C@@H]2CN(C1)Cc1c([nH]c3ccccc13)[C@@](C(=O)OC)(c1cc3c(cc1OC)N(C)[C@H]1[C@@](O)(C(=O)OC)[C@H](OC(C)=O)[C@]4(CC)C=CCN5CC[C@]31[C@@H]54)C2 [Vinorelbine] (top concentration 10000 nM)	25.1	24.1	17.8
